The values below come from patent US7122548B2, “Triazolotriazine compounds and uses thereof” (Sugen, Inc., priority 2003, dated 2006).

Where only a bound is given, the exact number is not on record here.

In this test the target is T1, c-MET (Homo sapiens, UniProt P08581).
T1 construct: Purified GST fusion protein containing the Met kinase domain, Sugen, Inc
In words: Met Transphosphorylation Assay (ELISA, poly(Glu,Tyr) 4:1 substrate). In kind it is biochemical. Particulars: purified GST fusion protein containing the Met kinase domain. As to the method: Met Transphosphorylation Assay
This assay is used to measure phosphotyrosine levels on a poly(glutamic acid:tyrosine (4:1)) substrate as a means for identifying agonists/antagonists of met transphosphorylation of the substrate.
6. Purified GST fusion protein containing the Met kinase domain, Sugen, Inc.
8. 10% aqueous (MilliQue H2O) DMSO.
10. 2× Kinase Dilution Buffer: for 100 ml, mix 10 mL 1M HEPES at pH 7.5 with 0.4 mL 5% BSA/PBS, 0.2 mL 0.1 M sodium orthovanadate and 1 mL 5M sodium chloride in 88.4 mL dH2O.
11. 4× ATP Reaction Mixture: for 10 mL, mix 0.4 mL 1 M manganese chloride and 0.02 mL 0.1 M ATP in 9.56 mL dH2O.
12. 4× Negative Controls Mixture: for 10 mL, mix 0.4 mL 1 M manganese chloride in 9.6 mL dH2O.
15. Antibody Dilution Buffer: for 100 mL, mix 10 mL 5% BSA/PBS, 0.5 mL 5% Carnation Instant Milk® in PBS and 0.1 mL 0.1 M sodium orthovanadate in 88.4 mL TBST.
16. Rabbit polyclonal antophosphotyrosine antibody, Sugen, Inc.
17. Goat anti-rabbit horseradish peroxidase conjugated antibody, Biosource, Inc.
18. ABTS Solution: for 1 L, mix 19.21 g citric acid, 35.49 g Na2HPO4 and 500 mg ABTS with sufficient dH2O to make 1 L.
19. ABTS/H2O2: mix 15 mL ABST solution with 2pL H2O2 five minutes before use.
1. Coat ELISA plates with 2 μg Poly(Glu—Tyr) in 100 μL PBS, store overnight at 4° C.
2. Block plate with 150 μL of 5% BSA/PBS for 60 min.
3. Wash plate twice with PBS, once with 50 mM Hepes buffer pH 7.4.
4. Add 50 μl of the diluted kinase to all wells. (Purified kinase is diluted with Kinase Dilution Buffer. Final concentration should be 10 ng/well.)
5. Add 25 μL of the test compound (in 4% DMSO) or DMSO alone (4% in dH2O) for controls to plate.
6. Incubate the kinase/compound mixture for 15 minutes.
7. Add 25 μL of 40 mM MnCl2 to the negative control wells.
8. Add 25 μL ATP/MnCl2 mixture to the all other wells (except the negative controls). Incubate for 5 min.
9. Add 25 μL 500 mM EDTA to stop reaction.
10. Wash plate 3× with TBST.
11. Add 100 μL rabbit polyclonal anti-Ptyr diluted 1:10,000 in Antibody Dilution Buffer to each well. Incubate, with shaking, at room temperature for one hour.
12. Wash plate 3× with TBST.
13. […] Add 100 μL per well and incubate at room temperature, with shaking, for one hour.
14. Wash plate 1× with PBS.
15. Add 100 μl of ABTS/H2O2 solution to each well.
16. If necessary, stop the development reaction with the addition of 100 μl of 0.2M HCl per well.
Met Transphosphorylation Assay Results

T1 sequence (P08581 1078-1345 limits assumed): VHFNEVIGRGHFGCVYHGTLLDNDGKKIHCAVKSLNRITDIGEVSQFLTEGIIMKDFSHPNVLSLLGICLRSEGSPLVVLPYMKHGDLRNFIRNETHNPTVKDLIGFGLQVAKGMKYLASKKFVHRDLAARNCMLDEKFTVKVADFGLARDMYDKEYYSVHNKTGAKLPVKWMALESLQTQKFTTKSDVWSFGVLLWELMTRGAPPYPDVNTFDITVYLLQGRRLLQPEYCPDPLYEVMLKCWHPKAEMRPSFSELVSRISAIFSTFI

The compound `Fc1ccc(Cc2nnc3ncc(-c4cccs4)nn23)cc1` [Example 5, 3-(4-Fluoro-benzyl)-6-thiophen-2-yl-[1,2,4]triazolo[4,3-b][1,2,4]triazine] gave an IC50 of 13 nM.

`Oc1ccc(Cc2nnc3nccnn23)cc1` [Example 7, 4-[1,2,4]Triazolo[4,3-b][1,2,4]triazin-3-ylmethyl-phenol] gave an IC50 of 56 nM.

In turn, `Cc1nn2c(Cc3ccc(O)cc3)nnc2nc1N` [Example 9, 4-(7-Amino-6-methyl-[1,2,4]triazolo[4,3-b][1,2,4]triazin-3-ylmethyl)-phenol] registered an IC50 of 830 nM. This IC50 is about 15-fold higher than that of the compound before.

Take `Fc1ccc(Cc2nnc3ncc(-c4ccc(Br)cc4)nn23)cc1` [Example 6, 6-(4-Bromo-phenyl)-3-(4-fluoro-benzyl)-[1,2,4]triazolo[4,3-b][1,2,4]triazine]: the IC50 amounted to 45 nM.

Take `Oc1ccc(Cc2nnc3ncc(-c4cccs4)nn23)cc1` [Example 2, 4-(6-Thiophen-2-yl-[1,2,4]triazolo[4,3-b][1,2,4]triazin-3-ylmethyl)-phenol]: inhibition was half-maximal at 4 nM (IC50).

In turn, `Cc1nc2nnc(Cc3ccc(O)cc3)n2nc1C` [Example 8, 4-(6,7-Dimethyl-[1,2,4]triazolo[4,3-b][1,2,4]triazin-3-ylmethyl)-phenol] came in with an IC50 greater than 20000 nM.

With `Fc1ccc(Cc2nnc3ncc(-c4ccccc4)nn23)cc1` [Example 4, 3-(4-Fluoro-benzyl)-6-phenyl-[1,2,4]triazolo[4,3-b][1,2,4]triazine], half-maximal inhibition (IC50) was put at 50 nM. In other words, the double-digit nanomolar range.
